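Following 48 hours of exposure in 96-well plates, responses at five concentrations were used to interpolate endpoints linearly. The concentration for full growth arrest is given as TGI.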

Some test systems named below: LOX IMVI melanoma; 786-0 renal; PC-3 prostate; SR leukemia; SK-MEL-2 melanoma; OVCAR-4 ovarian; MCF7 breast; SN12C renal; IGROV1 ovarian; MDA-MB-231 breast.
Holding throughout (assay): growth of human tumour cells (NCI), 48 h

As to `C[C@]12CCC(O)CC1=CC[C@@H]1[C@@H]2CC[C@]2(C)C(O)[C@H](n3ccnc3)C[C@@H]12` (stereo not given in full), the TGI in the experiment with LOX IMVI melanoma, with 786-0 renal, with PC-3 prostate, in the experiment with SR leukemia, in the experiment on SK-MEL-2 melanoma and in the experiment on OVCAR-4 ovarian was over 100 µM in each case. Moreover, the TGI with MCF7 breast, in the experiment with SN12C renal, in the experiment on IGROV1 ovarian and in the experiment with MDA-MB-231 breast was over 100 µM each time.

For `C[N+]12CCCCC1C(COc1cccc3cccnc13)CCC2` (stereo not given), the TGI in the experiment with LOX IMVI melanoma, in the experiment with 786-0 renal, with PC-3 prostate, with SR leukemia, in the experiment with SK-MEL-2 melanoma and in the experiment on OVCAR-4 ovarian was over 100 µM each time. Moreover, the TGI in the experiment with MCF7 breast, in the experiment on SN12C renal, in the experiment on IGROV1 ovarian and in the experiment with MDA-MB-231 breast was over 100 µM throughout.

As to `COC(=O)C1C2OC(C)(C)OC2CN1S(=O)(=O)c1ccc(C)cc1` (stereo not given), the TGI in the experiment on LOX IMVI melanoma, in the experiment on 786-0 renal, in the experiment on PC-3 prostate, in the experiment on SR leukemia, in the experiment on SK-MEL-2 melanoma and in the experiment on OVCAR-4 ovarian was over 100 µM throughout. The TGI with MCF7 breast, in the experiment with SN12C renal, in the experiment on IGROV1 ovarian and in the experiment on MDA-MB-231 breast was over 100 µM throughout.

Consider `COc1nn(Cc2ccccn2)c2ccc([N+](=O)[O-])cc12`, for which the TGI in the experiment with LOX IMVI melanoma is over 100 µM; with 786-0 renal, over 100 µM; with PC-3 prostate, over 100 µM; with SR leukemia, 98.4 µM; in the experiment with SK-MEL-2 melanoma, over 100 µM; in the experiment on OVCAR-4 ovarian, over 100 µM. Moreover, the TGI in the experiment with MCF7 breast, with SN12C renal, in the experiment on IGROV1 ovarian and in the experiment with MDA-MB-231 breast was over 100 µM each time.

In the case of `CC(C)OC(=O)c1ccc(NCC2=CC(=O)C=CC2=O)cc1`, the TGI in the experiment with LOX IMVI melanoma was determined as 26.2 µM; in the experiment with 786-0 renal, 28.5 µM; in the experiment with PC-3 prostate, 25.7 µM; in the experiment with SR leukemia, 8.37 µM; in the experiment on SK-MEL-2 melanoma, 31.5 µM; in the experiment on OVCAR-4 ovarian it was 26.2 µM. In addition, the TGI in the experiment on MCF7 breast stood at 27.3 µM; in the experiment with SN12C renal it was 26.1 µM; in the experiment with IGROV1 ovarian it was 26.4 µM; with MDA-MB-231 breast it was 25 µM.

Turning to `O=C1c2ccccc2-c2nnc(-c3ccc([N+](=O)[O-])cc3)cc21`, the TGI in the experiment on LOX IMVI melanoma, in the experiment with 786-0 renal, in the experiment on PC-3 prostate, with SR leukemia, in the experiment with SK-MEL-2 melanoma and in the experiment with OVCAR-4 ovarian was over 10 µM each time. Moreover, the TGI in the experiment with MCF7 breast, in the experiment on SN12C renal, in the experiment on IGROV1 ovarian and in the experiment with MDA-MB-231 breast was over 10 µM in each case.

For `CC(C)CCCC(C)[C@H]1CC[C@H]2n3c(nnc3-c3ccccc3)CCC[C@]12C` (stereo not given in full), the TGI with LOX IMVI melanoma was found to be 12.5 µM; in the experiment with 786-0 renal it was 34.8 µM; in the experiment on PC-3 prostate, 44.9 µM; in the experiment on SR leukemia it was 26.3 µM; with SK-MEL-2 melanoma it was 29.8 µM; in the experiment with OVCAR-4 ovarian, 32.5 µM. In addition, the TGI in the experiment on MCF7 breast worked out at 20.7 µM; with SN12C renal it was 27.5 µM; with IGROV1 ovarian, 23.4 µM; in the experiment on MDA-MB-231 breast, 37.9 µM.

`CC(NC(=O)OCc1ccccc1)NC(=O)OC(C)(C)C` (stereo not given): the TGI in the experiment with LOX IMVI melanoma, with 786-0 renal, in the experiment on PC-3 prostate, in the experiment with SR leukemia, with SK-MEL-2 melanoma and in the experiment on OVCAR-4 ovarian was over 100 µM throughout. The TGI in the experiment with MCF7 breast, with SN12C renal, in the experiment with IGROV1 ovarian and in the experiment on MDA-MB-231 breast was over 100 µM throughout.

Take `CC1=CC[C@H](C[C@H](C#CCCCC2OCCO2)O[Si](C(C)C)(C(C)C)C(C)C)C(=O)CC1`: the TGI in the experiment on LOX IMVI melanoma, with 786-0 renal, with PC-3 prostate, in the experiment on SR leukemia, with SK-MEL-2 melanoma and in the experiment on OVCAR-4 ovarian was over 100 µM in each case. Moreover, the TGI in the experiment on MCF7 breast, in the experiment with SN12C renal, in the experiment on IGROV1 ovarian and with MDA-MB-231 breast was over 100 µM in each case.

Turning to `CC(=O)NC1C(OCc2ccccc2)OC(CO)C(O)C1OC(C)C(=O)NC(C(=O)NC(CCC(=O)NCCCC(=O)Nc1ccc2c(c1)CN1C(=O)c3ccccc3C1=N2)C(N)=O)C(C)C` (stereo not given), the TGI in the experiment on LOX IMVI melanoma, in the experiment on 786-0 renal, in the experiment with PC-3 prostate, with SR leukemia, with SK-MEL-2 melanoma and with OVCAR-4 ovarian was over 100 µM throughout. The TGI with MCF7 breast, in the experiment on SN12C renal, with IGROV1 ovarian and in the experiment on MDA-MB-231 breast was over 100 µM each time.

`O=c1[nH]c(=O)n(C/C=C/CO)nc1Br`: the TGI in the experiment with LOX IMVI melanoma, with 786-0 renal, in the experiment on PC-3 prostate, in the experiment on SR leukemia, with SK-MEL-2 melanoma and with OVCAR-4 ovarian was over 100 µM throughout. In addition, the TGI in the experiment with MCF7 breast, in the experiment on SN12C renal, with IGROV1 ovarian and in the experiment with MDA-MB-231 breast was over 100 µM each time.

On to `OCC1OC(NC(=S)NCCC(F)(F)C(F)(F)C(F)(F)C(F)(F)C(F)(F)C(F)(F)F)C(O)C(O)C1O` (stereo not given), for which the TGI in the experiment on LOX IMVI melanoma, in the experiment with 786-0 renal, in the experiment on PC-3 prostate, in the experiment with SR leukemia, with SK-MEL-2 melanoma and in the experiment on OVCAR-4 ovarian was over 100 µM throughout. The TGI in the experiment with MCF7 breast, with SN12C renal, in the experiment on IGROV1 ovarian and in the experiment with MDA-MB-231 breast was over 100 µM each time.

Turning to `O=C(CSc1ncccn1)N/N=C/c1ccccc1OCc1ccccc1`, the TGI was 36.4 µM with LOX IMVI melanoma; over 100 µM with 786-0 renal; over 100 µM with PC-3 prostate; 29.5 µM with SR leukemia; 47.6 µM with SK-MEL-2 melanoma; over 100 µM in the experiment with OVCAR-4 ovarian. In addition, the TGI with MCF7 breast was 43.9 µM; in the experiment with SN12C renal, 72.6 µM; in the experiment on IGROV1 ovarian, over 100 µM; with MDA-MB-231 breast it was 95.3 µM.

(Values after PubChem BioAssay (NCI).)
